Measured values taken from patent publication US8927531B2, “Indanyloxydihydrobenzofuranylacetic acids” (Boehringer Ingelheim International GmbH, priority 2013, dated 2015).

Molecular target: human GPR40 receptor (Homo sapiens, UniProt O14842)
Test: IP1 accumulation measurements using the IPOne assay system in 1321N1 cells stably expressing human GPR40 receptor
Assay type: cell-based
Conditions: stimulation 1 h at 37° C.
Protocol: IP1 accumulation measurements using the IPOne assay system—1321N1 cells stably expressing human GPR40 receptor (Euroscreen, Belgium) are seeded 24 h before the assay in white 384-well plates in culture medium containing 10% FCS, 1% Na-Pyruvate and 400 μg/mL G418. IP1 is assayed according to the manufacturer's description (Cisbio Bioassays, France). In brief, the assay is started by substitution of the culture medium by stimulation buffer (Hepes 10 mM, CaCl2 1 mM, MgCl2 0.5 mM, KCl 4.2 mM, NaCl 146 mM, glucose 5.5 mM and LiCl 50 mM, pH 7.4). Cells are stimulated for 1 h at 37° C., 5% CO2 by addition of the compounds that are diluted in stimulation buffer containing LiCl. Assays are stopped by adding HTRF-conjugates (IP1-d2 and Anti-IP1 cryptate Tb) and lysis buffer, provided by the manufacturer. After an incubation time of 1 h at room temperature plates are measured using an EnVision™, Perkin Elmer. The obtained fluorescence ratios at 665/615 […] are then used to calculate the pEC50 values using Assay Explorer 3.3 Software (Accelrys, Inc.) by interpolation using an IP1 reference curve and subsequent sigmoidal curve fitting allowing for a variable hill slope.

Chain of human GPR40 receptor (O14842 whole entry): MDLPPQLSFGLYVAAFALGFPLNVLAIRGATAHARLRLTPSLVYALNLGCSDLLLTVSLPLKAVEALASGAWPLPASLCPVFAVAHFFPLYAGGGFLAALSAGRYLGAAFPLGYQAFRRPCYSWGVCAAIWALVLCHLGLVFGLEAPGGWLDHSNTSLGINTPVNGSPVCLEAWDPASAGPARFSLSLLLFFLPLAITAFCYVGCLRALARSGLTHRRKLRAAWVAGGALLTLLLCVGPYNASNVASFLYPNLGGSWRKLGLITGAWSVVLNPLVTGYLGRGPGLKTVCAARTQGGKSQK

| SMILES | EC50 |
| --- | --- |
| CCOC(=O)N1CCN(Cc2c(C(F)(F)F)ccc3c2CC[C@H]3Oc2ccc3c(c2)OC[C@H]3CC(=O)O)CC1 [Example 20, {(S)-6-[(R)-4-(4-Ethoxycarbonyl-piperazin-1-ylmethyl)-5-trifluoromethyl-indan-1-yloxy]-2,3-dihydro-benzofuran-3-yl}-acetic acid] | 9 nM |
| Cc1nc2c(o1)CCN(Cc1c(C(F)(F)F)ccc3c1CC[C@H]3Oc1ccc3c(c1)OC[C@H]3CC(=O)O)C2 [Example 35, {(S)-6-[(R)-4-(2-Methyl-6,7-dihydro-oxazolo[4,5-c]pyridin-5-ylmethyl)-5-trifluoromethyl-indan-1-yloxy]-2,3-dihydro-benzofuran-3-yl}-acetic acid] | 3 nM |
| O=C(O)C[C@@H]1COc2cc(O[C@@H]3CCc4c3ccc(C(F)(F)F)c4CN3CCc4nocc4C3)ccc21 [Example 34, {(S)-6-[(R)-4-(6,7-Dihydro-isoxazolo[4,3-c]pyridin-5-ylmethyl)-5-trifluoromethyl-indan-1-yloxy]-2,3-dihydro-benzofuran-3-yl}-acetic acid] | 3 nM |
| Cn1cc2c(n1)CCN(Cc1c(C(F)(F)F)ccc3c1CC[C@H]3Oc1ccc3c(c1)OC[C@H]3CC(=O)O)C2 [Example 31, {(S)-6-[(R)-4-(2-Methyl-2,4,6,7-tetrahydro-pyrazolo[4,3-c]pyridin-5-ylmethyl)-5-trifluoromethyl-indan-1-yloxy]-2,3-dihydro-benzofuran-3-yl}-acetic acid] | 2 nM |
| O=C(O)C[C@@H]1COc2cc(O[C@@H]3CCc4c3ccc(C(F)(F)F)c4CN3CCc4ccccc4C3)ccc21 [Example 29, {(S)-6-[(R)-4-(3,4-Dihydro-isoquinolin-2-ylmethyl)-5-trifluoromethyl-indan-1-yloxy]-2,3-dihydro-benzofuran-3-yl}-acetic acid] | 3 nM |
| Cc1nc2c(s1)CN(Cc1c(C(F)(F)F)ccc3c1CC[C@H]3Oc1ccc3c(c1)OC[C@H]3CC(=O)O)CC2 [Example 6, {(S)-6-[(R)-4-(2-Methyl-4,5,6,7-tetrahydro-thiazolo[5,4-c]pyridin-5-ylmethyl)-5-trifluoromethyl-indan-1-yloxy]-2,3-dihydro-benzofuran-3-yl}-acetic acid] | 2 nM |
| O=C(O)C[C@@H]1COc2cc(O[C@@H]3CCc4c3ccc(C(F)(F)F)c4CN3CCOCC3)ccc21 [Example 1, {(S)-6-[(R)-4-Morpholin-4-ylmethyl-5-trifluoromethyl-indan-1-yloxy]-2,3-dihydro-benzofuran-3-yl}-acetic acid] | 3 nM |
| O=C(O)C[C@@H]1COc2cc(O[C@@H]3CCc4c3ccc(C(F)(F)F)c4CN3CCSCC3)ccc21 [Example 3, {(S)-6-[(R)-4-Thiomorpholin-4-ylmethyl-5-trifluoromethyl-indan-1-yloxy]-2,3-dihydro-benzofuran-3-yl}-acetic acid] | 3 nM |
| O=C(O)C[C@@H]1COc2cc(O[C@@H]3CCc4c3ccc(C(F)(F)F)c4CN3CCc4ccsc4C3)ccc21 [Example 32, {(S)-6-[(R)-4-(4,7-Dihydro-thieno[2,3-c]pyridin-6-ylmethyl)-5-trifluoromethyl-indan-1-yloxy]-2,3-dihydro-benzofuran-3-yl}-acetic acid] | 2 nM |
| COC1CCN(Cc2c(C(F)(F)F)ccc3c2CC[C@H]3Oc2ccc3c(c2)OC[C@H]3CC(=O)O)CC1 [Example 10, {(S)-6-[(R)-4-(4-Methoxy-piperidin-1-ylmethyl)-5-trifluoromethyl-indan-1-yloxy]-2,3-dihydro-benzofuran-3-yl}-acetic acid] | 5 nM |
| CC(=O)N1CCN(Cc2c(C(F)(F)F)ccc3c2CC[C@H]3Oc2ccc3c(c2)OC[C@H]3CC(=O)O)CC1 [Example 16, {(S)-6-[(R)-4-(4-Acetyl-piperazin-1-ylmethyl)-5-trifluoromethyl-indan-1-yloxy]-2,3-dihydro-benzofuran-3-yl}-acetic acid] | 16 nM |
| O=C(O)C[C@@H]1COc2cc(O[C@@H]3CCc4c3ccc(C(F)(F)F)c4CN3CCC4(CCCO4)CC3)ccc21 [Example 11, {(S)-6-[(R)-4-(1-Oxa-8-aza-spiro[4.5]dec-8-ylmethyl)-5-trifluoromethyl-indan-1-yloxy]-2,3-dihydro-benzofuran-3-yl}-acetic acid] | 6 nM |
| O=C(O)C[C@@H]1COc2cc(O[C@@H]3CCc4c3ccc(C(F)(F)F)c4CN3CCCCC3)ccc21 [Example 5, {(S)-6-[(R)-4-Piperidin-1-ylmethyl-5-trifluoromethyl-indan-1-yloxy]-2,3-dihydro-benzofuran-3-yl}-acetic acid] | 5 nM |
| O=C(O)C[C@@H]1COc2cc(O[C@@H]3CCc4c3ccc(C(F)(F)F)c4CN3CCn4nccc4C3)ccc21 [Example 33, {(S)-6-[(R)-4-(6,7-Dihydro-pyrazolo[1,5-a]pyrazin-5-ylmethyl)-5-trifluoromethyl-indan-1-yloxy]-2,3-dihydro-benzofuran-3-yl}-acetic acid] | 2 nM |
| O=C(O)C[C@@H]1COc2cc(O[C@@H]3CCc4c3ccc(C(F)(F)F)c4CN3CC4CCC(C3)O4)ccc21 [Example 24, {(S)-6-[(R)-4-(8-Oxa-3-aza-bicyclo[3.2.1]oct-3-ylmethyl)-5-trifluoromethyl-indan-1-yloxy]-2,3-dihydro-benzofuran-3-yl}-acetic acid] | 14 nM |
| O=C(O)C[C@@H]1COc2cc(O[C@@H]3CCc4c3ccc(C(F)(F)F)c4CN3CCNCC3)ccc21 [Example 15, {(S)-6-[(R)-4-piperazin-1-ylmethyl-5-trifluoromethyl-indan-1-yloxy]-2,3-dihydro-benzofuran-3-yl}-acetic acid] | 468 nM |
| C[C@@H]1CN(Cc2c(C(F)(F)F)ccc3c2CC[C@H]3Oc2ccc3c(c2)OC[C@H]3CC(=O)O)C[C@H](C)O1 [Example 18, {(S)-6-[(R)-4-(cis-2,6-Dimethyl-morpholin-4-ylmethyl)-5-trifluoromethyl-indan-1-yloxy]-2,3-dihydro-benzofuran-3-yl}-acetic acid] | 11 nM |
| O=C(O)C[C@@H]1COc2cc(O[C@@H]3CCc4c3ccc(C(F)(F)F)c4CN3CCCCCC3)ccc21 [Example 19, {(S)-6-[(R)-4-Azepan-1-ylmethyl-5-trifluoromethyl-indan-1-yloxy]-2,3-dihydro-benzofuran-3-yl}-acetic acid] | 7 nM |
| CCC(=O)N1CCN(Cc2c(C(F)(F)F)ccc3c2CC[C@H]3Oc2ccc3c(c2)OC[C@H]3CC(=O)O)CC1 [Example 21, {(S)-6-[(R)-4-(4-Propionyl-piperazin-1-ylmethyl)-5-trifluoromethyl-indan-1-yloxy]-2,3-dihydro-benzofuran-3-yl}-acetic acid] | 12 nM |
| O=C(O)C[C@@H]1COc2cc(O[C@@H]3CCc4c3ccc(C(F)(F)F)c4CN3CCCOCC3)ccc21 [Example 9, {(S)-6-[(R)-[1,4]Oxazepan-4-ylmethyl-5-trifluoromethyl-indan-1-yloxy]-2,3-dihydro-benzofuran-3-yl}-acetic acid] | 3 nM |
| CC(C)OC(=O)N1CCN(Cc2c(C(F)(F)F)ccc3c2CC[C@H]3Oc2ccc3c(c2)OC[C@H]3CC(=O)O)CC1 [Example 22, {(S)-6-[(R)-4-(4-Isopropoxycarbonyl-piperazin-1-ylmethyl)-5-trifluoromethyl-indan-1-yloxy]-2,3-dihydro-benzofuran-3-yl}-acetic acid] | 14 nM |
